Earlier results in patent publication US20120046351A1, “Medicinal cannabis added in food” (priority 2010, published 2012).

How the values were obtained:
people who use cannabis = details: compared with the no cannabinoid and the TCH+CBD groups
[1] = 180 degrees C.

Compound: CCCCCc1cc(O)c2c(c1)OC(C)(C)[C@@H]1CCC(C)=C[C@@H]21 [Δ^9-THC, Tetrahydrocannabinol]
- positive schizophrenia-like symptoms (people who use cannabis): higher levels of positive schizophrenia-like symptoms
- degradation of Δ^9-THC into cannabinol and dihydrocannabinol [1]: A significant percentage of Δ^9-THC being degraded
